Source: patent publication US12146004B2, “Polymyxin compounds and uses thereof” (priority 2014, dated 2024)
≈ marks a conversion by molar mass, not a printed value. Like-named read-outs stand apart in the source and are kept apart here. Bridge positions count the residues as written; N and C are the ends. Square brackets hold non-standard residues; d marks the D form. Peptide text beside a SMILES is read from it. * marks the point of attachment. ξ: configuration not given here. X16 = Cc1cc(C)cc(CO[C@@H](CCN)C(=O)*)c1; X29 = Cc1ccc(CO[C@@H](CN)C(=O)*)cc1; X27 = NCCC(C(=O)*)c1cccc(Cl)c1; dCha = N[C@H](CC1CCCCC1)C(=O)O; Thr(3ξ) = CC(O)[C@H](N)C(=O)O; X21 = NCC(CC1CCCCC1)C(=O)*; Dab = NCC[C@H](N)C(=O)O; Dap = NC[C@H](N)C(=O)O

Assays:
Type in all cases: cell-based
Acinetobacter baumannii = tested on: Acinetobacter baumannii
Outline: (§1)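 MIC (μg/mL) from susceptibility testing; up to nine strains per species, incl. resistant and Polymyxin-elevated-MIC strains.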

Klebsiella pneumoniae = tested on: Klebsiella pneumoniae
Outline: as §1

Pseudomonas aeruginosa = tested on: Pseudomonas aeruginosa
Outline: as §1

Escherichia coli = tested on: Escherichia coli
Outline: as §1

Compound	MIC A. baumanii ATCC BAA-747 (Acinetobacter baumannii)	MIC A. baumanii NCTC 13424 (Acinetobacter baumannii)	MIC K. pneumoniae ATCC 13882 (Klebsiella pneumoniae)	MIC P. aeruginosa ATCC 27853 (Pseudomonas aeruginosa)	MIC P. aeruginosa CCUG 59347 (Pseudomonas aeruginosa)	MIC E. coli 058 (Escherichia coli)	MIC E. coli ATCC 25922 (Escherichia coli)	MIC A. baumanii ATCC BAA-747 (Acinetobacter baumannii; strain ATCC BAA-747)	MIC A. baumanii NCTC 13424 (Acinetobacter baumannii; strain NCTC 13424)	MIC K. pneumoniae 065 (Klebsiella pneumoniae; strain 065)	MIC K. pneumoniae ATCC 13882 (Klebsiella pneumoniae; strain ATCC 13882)	MIC P. aeruginosa ATCC 27853 (Pseudomonas aeruginosa; strain ATCC 27853)	MIC P. aeruginosa CCUG 59347 (Pseudomonas aeruginosa; strain CCUG 59347)	MIC E. coli 058 (Escherichia coli; strain 058)	MIC E. coli ATCC 25922 (Escherichia coli; strain ATCC 25922)	MIC K. pneumoniae 065 (Klebsiella pneumoniae)	MIC A. baumanii 053 (Acinetobacter baumannii)	MIC A. baumanii 056 (Acinetobacter baumannii)	MIC K. pneumoniae 063 (Klebsiella pneumoniae)	MIC P. aeruginosa 068 (Pseudomonas aeruginosa)	further results
Cc1ccc(CO[C@@H](CN)C(=O)N[C@H](C(=O)N[C@@H](CN)C(=O)N[C@H]2CCNC(=O)[C@H]([C@@H](C)O)NC(=O)[C@H](CCN)NC(=O)[C@H](CCN)NC(=O)[C@H](CC(C)C)NC(=O)[C@@H](CC3CCCCC3)NC(=O)[C@H](CCN)NC2=O)[C@@H](C)O)cc1 [Example 78, (S)-3-amino-2-((4-methylbenzyl)oxy) propanoyl L-Thr-L-Dap-polymyxin [D-cyclohexylalanine]-6 heptapeptide] (X29-T[Dap][Dab][Dab][dCha]L[Dab][Dab]T; lactam 3-C)	0.25 µg/mL (≈ 0.218 µM)	0.06 µg/mL (≈ 0.0523 µM)	0.25 µg/mL (≈ 0.218 µM)	0.25 µg/mL (≈ 0.218 µM)	0.25 µg/mL (≈ 0.218 µM)	4 µg/mL (≈ 3.49 µM)	0.25 µg/mL (≈ 0.218 µM)														
CC(C)C[C@@H]1NC(=O)[C@@H](CC2CCCCC2)NC(=O)[C@H](CCN)NC(=O)[C@@H](NC(=O)[C@H](CCN)NC(=O)[C@@H](NC(=O)CC(CN)c2ccccc2)[C@@H](C)O)CCNC(=O)[C@H]([C@@H](C)O)NC(=O)[C@H](CCN)NC(=O)[C@H](CCN)NC1=O (single isomer, unassigned; isomer 1) [Example 56, 4-amino-3-phenylbutanoyl polymyxin [D-cyclohexylalanine]-6 nonapeptide isomer 1]								0.125 µg/mL (≈ 0.111 µM)	0.125 µg/mL (≈ 0.111 µM)	16 µg/mL (≈ 14.2 µM)	0.25 µg/mL (≈ 0.221 µM)	0.25 µg/mL (≈ 0.221 µM)	0.5 µg/mL (≈ 0.442 µM)	16 µg/mL (≈ 14.2 µM)	0.25 µg/mL (≈ 0.221 µM)						
CC(C)C[C@@H]1NC(=O)[C@@H](CC2CCCCC2)NC(=O)[C@H](CCN)NC(=O)[C@@H](NC(=O)[C@H](CN)NC(=O)[C@@H](NC(=O)CC(CN)C2CCCCC2)C(C)O)CCNC(=O)[C@H]([C@@H](C)O)NC(=O)[C@H](CCN)NC(=O)[C@H](CCN)NC1=O (single isomer, unassigned; isomer 1) [Example 42, 4-amino-3-cyclohexylbutanoyl L-Thr-L-Dap-polymyxin [D-cyclohexylalanine]-6 heptapeptide. Isomer 1]								0.125 µg/mL (≈ 0.111 µM)	0.125 µg/mL (≈ 0.111 µM)	2 µg/mL (≈ 1.78 µM)	0.25 µg/mL (≈ 0.223 µM)	0.5 µg/mL (≈ 0.445 µM)	0.5 µg/mL (≈ 0.445 µM)	4 µg/mL (≈ 3.56 µM)	0.5 µg/mL (≈ 0.445 µM)						MIC A. baumanii 053 (Acinetobacter baumannii; strain 053): >64 µg/mL; MIC A. baumanii 056 (Acinetobacter baumannii; strain 056): 32 µg/mL (≈ 28.5 µM); MIC K. pneumoniae 063 (Klebsiella pneumoniae; strain 063): 32 µg/mL (≈ 28.5 µM); MIC P. aeruginosa 068 (Pseudomonas aeruginosa; strain 068): 2 µg/mL (≈ 1.78 µM); MIC P. aeruginosa 070 (Pseudomonas aeruginosa; strain 070): 4 µg/mL (≈ 3.56 µM); MIC E. coli 061 (Escherichia coli; strain 061): 8 µg/mL (≈ 7.13 µM); MIC E. coli NCTC 9001 (Escherichia coli; strain NCTC 9001): 0.06 µg/mL (≈ 0.0535 µM)
CC(C)C[C@@H]1NC(=O)[C@@H](CC2CCCCC2)NC(=O)[C@H](CCN)NC(=O)[C@@H](NC(=O)[C@H](CN)NC(=O)[C@@H](NC(=O)C(CCN)c2cccc(Cl)c2)[C@@H](C)O)CCNC(=O)[C@H]([C@@H](C)O)NC(=O)[C@H](CCN)NC(=O)[C@H](CCN)NC1=O (stereo partly drawn) [Example 79, 4-Amino-2-(3-chlorophenyl) butanoyl L-Thr-L-Dap-polymyxin [D-cyclohexylalanine]-6 heptapeptide.] (X27-T[Dap][Dab][Dab][dCha]L[Dab][Dab]T; lactam 3-C)	0.25 µg/mL (≈ 0.217 µM)	0.25 µg/mL (≈ 0.217 µM)	0.5 µg/mL (≈ 0.434 µM)	0.5 µg/mL (≈ 0.434 µM)	0.5 µg/mL (≈ 0.434 µM)	2 µg/mL (≈ 1.74 µM)	0.5 µg/mL (≈ 0.434 µM)									2 µg/mL (≈ 1.74 µM)					
CC(C)C[C@@H]1NC(=O)[C@@H](CC2CCCCC2)NC(=O)[C@H](CCN)NC(=O)[C@@H](NC(=O)[C@H](CCN)NC(=O)[C@@H](NC(=O)CC(CN)Cc2ccccc2)[C@@H](C)O)CCNC(=O)[C@H]([C@@H](C)O)NC(=O)[C@H](CCN)NC(=O)[C@H](CCN)NC1=O (single isomer, unassigned; isomer 1) [Example 66, 4-amino-3-benzylbutanoyl polymyxin [D-cyclohexylalanine]-6 nonapeptide isomer 1]								0.125 µg/mL (≈ 0.109 µM)	0.06 µg/mL (≈ 0.0524 µM)	4 µg/mL (≈ 3.5 µM)	0.125 µg/mL (≈ 0.109 µM)	0.25 µg/mL (≈ 0.218 µM)	0.5 µg/mL (≈ 0.437 µM)	8 µg/mL (≈ 6.99 µM)	0.125 µg/mL (≈ 0.109 µM)						MIC A. baumanii 053 (Acinetobacter baumannii; strain 053): >64 µg/mL; MIC A. baumanii 056 (Acinetobacter baumannii; strain 056): 64 µg/mL (≈ 55.9 µM); MIC K. pneumoniae 063 (Klebsiella pneumoniae; strain 063): 64 µg/mL (≈ 55.9 µM); MIC P. aeruginosa 068 (Pseudomonas aeruginosa; strain 068): 8 µg/mL (≈ 6.99 µM); MIC P. aeruginosa 070 (Pseudomonas aeruginosa; strain 070): 32 µg/mL (≈ 28 µM); MIC E. coli 061 (Escherichia coli; strain 061): 32 µg/mL (≈ 28 µM)
CC(C)C[C@@H]1NC(=O)[C@@H](CC2CCCCC2)NC(=O)[C@H](CCN)NC(=O)[C@@H](NC(=O)[C@H](CN)NC(=O)[C@@H](NC(=O)C(CN)CC2CCCCC2)C(C)O)CCNC(=O)[C@H]([C@@H](C)O)NC(=O)[C@H](CCN)NC(=O)[C@H](CCN)NC1=O (stereo partly drawn) [Example 31, 3-amino-2-(cyclohexylmethyl) propanoyl L-Thr-L-Dap-polymyxin [D-cyclohexylalanine]-6 heptapeptide] (X21-[Thr(3ξ)][Dap][Dab][Dab][dCha]L[Dab][Dab]T; lactam 3-C)	0.25 µg/mL (≈ 0.223 µM)	0.5 µg/mL (≈ 0.445 µM)	0.5 µg/mL (≈ 0.445 µM)	0.5 µg/mL (≈ 0.445 µM)	1 µg/mL (≈ 0.891 µM)	2 µg/mL (≈ 1.78 µM)	0.5 µg/mL (≈ 0.445 µM)									1 µg/mL (≈ 0.891 µM)	32 µg/mL (≈ 28.5 µM)	16 µg/mL (≈ 14.3 µM)	16 µg/mL (≈ 14.3 µM)	2 µg/mL (≈ 1.78 µM)	MIC P. aeruginosa 070 (Pseudomonas aeruginosa): 2 µg/mL (≈ 1.78 µM); MIC E. coli 061 (Escherichia coli): 16 µg/mL (≈ 14.3 µM)
Cc1cc(C)cc(CO[C@@H](CCN)C(=O)N[C@H](C(=O)N[C@@H](CN)C(=O)N[C@H]2CCNC(=O)[C@H]([C@@H](C)O)NC(=O)[C@H](CCN)NC(=O)[C@H](CCN)NC(=O)[C@H](CC(C)C)NC(=O)[C@@H](CC3CCCCC3)NC(=O)[C@H](CCN)NC2=O)[C@@H](C)O)c1 [Example 90, (S)-4-amino-2-((3,5-dimethylbenzyl)oxy)butanoyl L-Thr-L-Dap-polymyxin [D-cyclohexylalanine-6]heptapeptide] (X16-T[Dap][Dab][Dab][dCha]L[Dab][Dab]T; lactam 3-C)	0.125 µg/mL (≈ 0.106 µM)	0.06 µg/mL (≈ 0.0511 µM)	0.25 µg/mL (≈ 0.213 µM)	0.125 µg/mL (≈ 0.106 µM)	0.25 µg/mL (≈ 0.213 µM)	2 µg/mL (≈ 1.7 µM)	0.125 µg/mL (≈ 0.106 µM)									4 µg/mL (≈ 3.41 µM)	>64 µg/mL	32 µg/mL (≈ 27.2 µM)	64 µg/mL (≈ 54.5 µM)	4 µg/mL (≈ 3.41 µM)	MIC P. aeruginosa 070 (Pseudomonas aeruginosa): 16 µg/mL (≈ 13.6 µM); MIC E. coli 061 (Escherichia coli): 16 µg/mL (≈ 13.6 µM); MIC E. coli NCTC 9001 (Escherichia coli): 0.125 µg/mL (≈ 0.106 µM)
CC(C)C[C@@H]1NC(=O)[C@@H](CC2CCCCC2)NC(=O)[C@H](CCN)NC(=O)[C@@H](NC(=O)[C@H](CCN)NC(=O)[C@@H](NC(=O)C(CCN)c2ccccc2)[C@@H](C)O)CCNC(=O)[C@H]([C@@H](C)O)NC(=O)[C@H](CCN)NC(=O)[C@H](CCN)NC1=O (single isomer, unassigned; isomer 2) [Example 64, 4-amino-2-phenylbutanoyl polymyxin [D-cyclohexylalanine]-6 nonapeptide isomer 2]	0.125 µg/mL (≈ 0.111 µM)	0.25 µg/mL (≈ 0.221 µM)	0.25 µg/mL (≈ 0.221 µM)	0.25 µg/mL (≈ 0.221 µM)	0.25 µg/mL (≈ 0.221 µM)	8 µg/mL (≈ 7.08 µM)	0.125 µg/mL (≈ 0.111 µM)									4 µg/mL (≈ 3.54 µM)	32 µg/mL (≈ 28.3 µM)	32 µg/mL (≈ 28.3 µM)	64 µg/mL (≈ 56.6 µM)	8 µg/mL (≈ 7.08 µM)	MIC P. aeruginosa 070 (Pseudomonas aeruginosa): 16 µg/mL (≈ 14.2 µM); MIC E. coli 061 (Escherichia coli): 32 µg/mL (≈ 28.3 µM)
